Laboratory results: patent publication US6391296B1 (priority 1997, dated 2002)

How the values were obtained:
[1] = tested on: recombinant Bombyx mori nuclear polyhedrosis viruses rBNVγ; assay type: cell-based, Bombyx mori nuclear polyhedrosis virus; conditions: pH 3.5
Escherichia coli TI41 = assay type: cell-based; conditions: Addition of 20 mg/l of thiaisoleucine, 30° C., 48 hours; no addition = 100
Escherichia coli JM101 = assay type: cell-based; conditions: Addition of 20 mg/l of thiaisoleucine, 30° C., 48 hours; no addition = 100
Escherichia coli TI139 = assay type: cell-based; conditions: Addition of 20 mg/l of thiaisoleucine, 30° C., 48 hours; no addition = 100

Compound | Amount of infectious viruses [1] | Relative degree of growth (Escherichia coli TI41) [%] | Relative degree of growth (Escherichia coli JM101) [%] | Relative degree of growth (Escherichia coli TI139) [%]
CC(C)(C)CC(C)(C)c1ccc(OCCOCC[N+](C)(C)Cc2ccccc2)cc1 [benzethonium chloride] | Not detected | – | – | –
thiaisoleucine | – | 95.2 | 17.1 | 106.1
